The text below walks through data of patent US11007248B2, “Suppression of allergic lung inflammation and hyperreactivity” (The Regents of the University of California, priority 2013, dated 2021).

Where no end group is shown, it is not given here. The star is where a group is joined. Myristoyl = CCCCCCCCCCCCCC(=O)*

For one experiment, the system named is phospho-MARCKS. Put plainly: IL-13-induced signaling in primary NHBE cells, western blot: phospho-MARCKS. It is filed as cell-based, human. The conditions noted are these: air-liquid interface, peptide 50 μM for 4 hrs, then IL-13 20 ng/ml for one hour. (In western blotting, separated proteins are transferred to a membrane and probed.)
The subject of another experiment is phospho-STAT6. Nature of the experiment: IL-13-induced signaling in primary NHBE cells, western blot: phospho-STAT6. The class given is cell-based, human. Particulars: air-liquid interface, peptide 50 μM for 4 hrs, then IL-13 20 ng/ml for one hour.
Experiment [1] deals with OVA-allergic mouse airways. Nature of the experiment: Airway resistance by invasive body plethysmography, murine OVA-allergic model. The class given is in vivo. Particulars: peptide i.p. before OVA i.n. challenge. How it is done: (§1) FIG. 2A: Murine OVA-allergic model.
Experiments were carried out as described in FIG. 2A. At day 19, animals were collected for airway resistance as measured by invasive body plethysmography. Data are expressed as the mean±SEM values (n=3). # p<0.05, PBS+OVA compared with the PBS control. *p<0.05, MPS +OVA compared with the PBS+OVA group.

Experiment [2] deals with OVA-allergic mouse airways. Nature of the experiment: Lung section histology (H&E, PAS), murine OVA-allergic model. Particulars: for allergic inflammation associated with allergen/ovalbumin-induced allergic airway disease: mouse. The class given is in vivo. How it is done:
as §1
FIGS. 4A-4B show MPS suppressed mucous cell metaplasia (stained by periodic acid stain (PAS)) and inflammatory cells in OVA-allergic mouse airways. Experiments were carried out as described in FIG. 2A. At day 19, animals were sacrificed and lung tissues were fixed for paraffin sections. FIG. 4A: Lung sections were stained by H&E, and PAS staining. Original magnification ×200. FIG. 4B: Quantification of the numbers of H&E-stained cells and PAS-stained cells, and the score of the Masson trichrome staining are presented in bar graphs. Data are expressed as mean±SEM values (n=6).

In experiment [3] the test system is antigen-presenting cells, dendritic cells (DCs). Put plainly: Homing of antigen-presenting dendritic cells to mediastinal lymph nodes, flow cytometry, Ova-induced allergic mouse asthma. The conditions noted are these: allergic animal model; OVA-DQ challenge day 15-18; CD11c+ cells in mediastinal lymph nodes. It is filed as in vivo. How it is done:
For detection of antigen specific DCs migration, mice were challenged with 150 μg OVA-DQ (Life Technologies, Grand Island, N.Y.) for one time per day at day 15-18. Cells were isolated from the mediastinal lymph nodes and lungs. Cells were stained with CD11c conjugated PEC-Cy7 (BD Bioscience, San Jose, Calif.) and analyzed by flow cytometry. Peptides used in this study were (wild type) MPS, A-MPS (mutant 2 in the figure) and D-MPS (mutant 1 in the FIG. 8).
(In flow cytometry, cells or beads pass a laser one at a time.)

Experiment [4] concerns BALF inflammatory cytokines (IL-4, IL-5, IL-13, eotaxin; IFN-γ). Particulars: OVA-allergic mouse airways; MPS 154 μg/mouse/day i.p.; ELISA. (ELISA stands for enzyme-linked immunosorbent assay.)
A further experiment has as its system p-Ser-159/163 MARCKS. Particulars: MPS 154 μg/mouse/day i.p. day 10-14 prior to OVA i.n. exposure; IHC of lung tissue sections.
The subject of the next experiment is OVA-specific IgE. The conditions noted are these: OVA-allergic mouse; MPS 154 μg/mouse/day i.p.; ELISA.
The subject of experiment [5] is inflammatory cell types in OVA-allergic mouse airways.
For a further experiment, the system named is mucus secretion. Particulars: previously reported, U.S. Patent Application Publication No. 2009/00220581; cited from earlier work.
The mark [6] stands for this setting: day 19, MPS+OVA vs PBS+OVA p<0.05.
Where [7] appears, read: OVA-allergic mouse airways, MPS 154 μg/mouse/day i.p., day 19.

As for KKKKKRFAFKKAFKLAGFAFKKNKK [A-MPS], the “suppression of IL-13-induced phospho-MARCKS elevation” value with phospho-MARCKS was “very effective in the suppression”. Further, the “suppression of IL-13-induced phospho-STAT6 elevation” value in the experiment with phospho-STAT6 was “very effective in the suppression”. Further, in experiment [1] (setting [6]), the “airway hyper-reactivity (airway resistance)” value (“airway hyper-reactivity” for short) is recorded as “able to suppress”. For the same substance, the “allergic inflammation associated with allergen/ovalbumin-induced allergic airway disease” value in experiment [2] was “able to suppress”. Also, the “lymph node homing of antigen presenting cells” value (shortened to “lymph node homing”) in experiment [3] is reported as “inhibited”.

In the case of KKKKKRFDFKKDFKLDGFDFKKNKK [D-MPS], in the experiment on phospho-MARCKS, the “suppression of IL-13-induced phospho-MARCKS elevation” value is “not”. Besides, the “suppression of IL-13-induced phospho-STAT6 elevation” value in the experiment on phospho-STAT6 was “not”. The “airway hyper-reactivity” value in [1] (setting [6]) is “not seen”. For the same substance, in experiment [2], the “allergic inflammation associated with allergen/ovalbumin-induced allergic airway disease” value is reported as “not seen”. Besides, in experiment [3], the “lymph node homing” value is on record as “no suppressive effects”.

For KKKKKRFSFKKSFKLSGFSFKKNKK [MPS], in the experiment on phospho-MARCKS, the “suppression of IL-13-induced phospho-MARCKS elevation” value was “very effective in the suppression”. Further, in experiment [4], the “Th1 cytokine (IFN-γ) in BALF” value is “not” and the “Th2 cytokines (IL-4, IL-5, IL-13, eotaxin) in BALF” value is given as “suppressed specifically”. The “suppression of IL-13-induced phospho-STAT6 elevation” value in the experiment on phospho-STAT6 is on record as “very effective in the suppression”. The “MARCKS phosphorylation in OVA sensitizing mice” value with p-Ser-159/163 MARCKS is recorded as “effectively suppress”. Moreover, the “airway hyper-reactivity” value in experiment [1] (setting [6]) is recorded as “suppressed”. For the same substance, the “airway hyper-reactivity” value in experiment [1] (day 19, MPS+OVA vs PBS+OVA p<0.05, listed as (wild-type) MPS) is reported as “able to suppress”. In addition, the “serum OVA-specific IgE” value in the experiment on OVA-specific IgE is on record as “suppressed”. In addition, in experiment [2] (setting [7]), the “inflammatory cells in lung tissue (H&E)” value is given as “suppressed” and the “mucous cell metaplasia (PAS stain)” value was “suppressed”. Further, the “allergic inflammation associated with allergen/ovalbumin-induced allergic airway disease” value in experiment [2] is recorded as “able to suppress”. Moreover, the “lymph node homing” value in experiment [3] is listed as “inhibited”. For the same substance, the “eosinophils (inflammatory response)” value in [5] (BALF differential cell counts) is on record as “reduction”. The “presence of various inflammatory cell types in BALF” value in [5] (MPS 154 μg/mouse/day i.p., day 19) is recorded as “suppressed”.

For “myristic acid—KKKKKRFSFKKSFKLSGFSFKKNKK (Myristoyl-KKKKKRFSFKKSFKLSGFSFKKNKK) [myristic acid-wild type MPS disclosed in U.S. 2009/00220581]”, in the experiment on mucus secretion, the mucus secretion entry was “increased”.
